From US12594268B2, “Methods of treating Fabry disease in patients having a mutation in the GLA gene” (Amicus Therapeutics, Inc., priority 2018, dated 2026)
Residue numbers refer to the chain shown, from its start.

What was measured:
Assay type in all cases: cell-based
[1] = biological target: T1, α-Gal A mutant form I239M (Homo sapiens, UniProt P06280, I239M); assay: α-Gal A activity in lysates of transfected HEK-293 cells, I239M
T1 construct: expressed in transfected cells; host or cells: HEK-293
T1 sequence (P06280 32-429 I239M): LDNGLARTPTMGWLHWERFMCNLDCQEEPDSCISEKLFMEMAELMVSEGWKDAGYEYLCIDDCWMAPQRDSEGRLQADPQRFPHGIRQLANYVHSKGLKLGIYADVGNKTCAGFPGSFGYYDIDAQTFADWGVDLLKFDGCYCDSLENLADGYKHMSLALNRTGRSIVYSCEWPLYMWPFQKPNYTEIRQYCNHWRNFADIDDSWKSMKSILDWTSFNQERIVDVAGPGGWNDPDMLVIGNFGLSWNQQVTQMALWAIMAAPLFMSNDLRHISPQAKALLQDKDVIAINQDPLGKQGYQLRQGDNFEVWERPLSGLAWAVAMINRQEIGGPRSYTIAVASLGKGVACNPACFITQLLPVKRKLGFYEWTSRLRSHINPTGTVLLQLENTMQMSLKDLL
Experimental: (§1) Baseline and 10 μM migalastat α-Gal A activity: Differences in the α-Gal A activity between lysates incubated in the absence and presence of 10 μM migalastat were determined using a one-tailed, Mann Whitney U test; an increase at 10 μM migalastat with a p<0.05 was considered significant.
(§2) 10 μM migalastat α-Gal A activity (% WT)=(α-Gal A activity in mutant transfected cell lysates incubated with 10 μM migalastat÷α-Gal A activity in wild-type transfected cell lysates without migalastat)*100.
(§3) Absolute increase (% WT)=is the 10 μM migalastat α-Gal A activity (% WT) minus the baseline α-Gal A activity (% WT).
(§4) Relative increase is the 10 μM migalastat α-Gal A activity in mutant transfected cell lysates÷baseline α-Gal A activity in mutant transfected cell lysates incubated without migalastat.

[2] = biological target: T2, α-Gal A mutant form A257V (Homo sapiens, UniProt P06280, A257V); assay: α-Gal A activity in lysates of transfected HEK-293 cells, A257V
T2 construct: expressed in transfected cells; host or cells: HEK-293
T2 sequence (P06280 32-429 A257V): T1 sequence (P06280 32-429 I239M) with M208I, A226V
Experimental: as §1, §2, §3, §4

α-Gal A mutant form N53K = biological target: T3, α-Gal A mutant form N53K (Homo sapiens, UniProt P06280, N53K); assay: α-Gal A activity in lysates of transfected HEK-293 cells, N53K
T3 construct: expressed in transfected cells; host or cells: HEK-293
T3 sequence (P06280 32-429 N53K): T1 sequence (P06280 32-429 I239M) with N22K, M208I
Experimental: as §1, §2, §3, §4

[3] = biological target: T4, α-Gal A mutant form R392T (Homo sapiens, UniProt P06280, R392T); assay: α-Gal A activity in lysates of transfected HEK-293 cells, R392T
T4 construct: expressed in transfected cells; host or cells: HEK-293
T4 sequence (P06280 32-429 R392T): T1 sequence (P06280 32-429 I239M) with M208I, R361T
Experimental: as §1, §2, §3, §4

[4] = biological target: T5, α-Gal A mutant form P380L (Homo sapiens, UniProt P06280, P380L); assay: α-Gal A activity in lysates of transfected HEK-293 cells, P380L
T5 construct: expressed in transfected cells; host or cells: HEK-293
T5 sequence (P06280 32-429 P380L): T1 sequence (P06280 32-429 I239M) with M208I, P349L
Experimental: as §1, §2, §3, §4

[5] = 10 μM migalastat minus baseline
[6] = 10 μM migalastat ÷ baseline activity
[7] = HEK-293 lysates, 10 μM migalastat, 5 days, mean ± SEM

Question: Which “Absolute increase (% WT)” value [1, 5] does the source give for `OC[C@H]1NC[C@H](O)[C@@H](O)[C@H]1O` [migalastat, (2R,3S,4R,5S)-2-(hydroxymethyl) piperdine-3,4,5-triol] here?
Answer: 55.5 % WT

Question: And the Relative increase [1, 6]?
Answer: 5.12

Question: And the “10 μM migalastat α-Gal A activity” value [1, 7]?
Answer: 24827 ± 3056 nmol/mg/h

Question: What about the “10 μM migalastat α-Gal A activity (% WT)” value [1, 7] of the same compound?
Answer: 69.3 ± 6.9 % WT

Question: What about the “Absolute increase (% WT)” value [2, 5] of the same compound?
Answer: 44.4 % WT

Question: And the Relative increase [2, 6]?
Answer: 1.85

Question: What about the “10 μM migalastat α-Gal A activity” value [2, 7] of the same compound?
Answer: 30313 ± 1981 nmol/mg/h

Question: What about the “10 μM migalastat α-Gal A activity (% WT)” value [2, 7] of the same compound?
Answer: 99.9 ± 4.6 % WT

Question: What about the “Absolute increase (% WT)” value (α-Gal A mutant form N53K; [5]) of the same compound?
Answer: 24.0 % WT

Question: And the Relative increase (α-Gal A mutant form N53K; [6])?
Answer: 2.70

Question: And the “10 μM migalastat α-Gal A activity” value (α-Gal A mutant form N53K; [7])?
Answer: 13895 ± 1270 nmol/mg/h

Question: And the “10 μM migalastat α-Gal A activity (% WT)” value (α-Gal A mutant form N53K; [7])?
Answer: 38.6 ± 2.5 % WT

Question: What about the “Absolute increase (% WT)” value [3, 5] of the same compound?
Answer: 21.3 % WT

Question: What about the Relative increase [3, 6] of the same compound?
Answer: 1.22

Question: What about the “10 nM migalastat α-Gal A activity” value ([3]; HEK-293 lysates, 10 nM migalastat as printed, 5 days, mean ± SEM) of the same compound?
Answer: 36679 ± 1896 nmol/mg/h

Question: And the “10 μM migalastat α-Gal A activity (% WT)” value [3, 7]?
Answer: 125.9 ± 6.2 % WT

Question: What about the “Absolute increase (% WT)” value [4, 5] of the same compound?
Answer: 7.1 % WT

Question: What about the Relative increase [4, 6] of the same compound?
Answer: 2.98

Question: And the “10 μM migalastat α-Gal A activity” value [4, 7]?
Answer: 4248 ± 369 nmol/mg/h

Question: And the “10 μM migalastat α-Gal A activity (% WT)” value [4, 7]?
Answer: 10.6 ± 1.0 % WT
